Test systems include SNB-19; UACC-62; SK-MEL-28; OVCAR-5; HCC 2998; OVCAR-8; HOP-62; UO-31; UACC-257; SF-539; HL-60; HOP-92; COLO 205; Malme-3M; OVCAR-3; K562; HT-29; RPMI-8226; SNB-75.
What all share (assay): DTP human tumour cell line panel, 48 h

A word on the GI50: it is the concentration that inhibits growth by half.

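Assay format: 96-well plates, 48-hour exposure. GI50: concentration for 50% inhibition of growth.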 Calls of active or inactive are those of the source. No stated cut-off is given here; in the data, active = GI50 up to about 1.1 µM and inactive = higher. Bounds are passed on as bounds.

As for `C=C1Oc2nc3ccccc3c(=O)n2C1(C)C`, the GI50 with SNB-19, with UACC-62, in the assay on SK-MEL-28, with OVCAR-5, with HCC 2998 and in the assay on OVCAR-8 was > 100 µM (inactive) in each case. For the same compound, the GI50 with HOP-62, in the assay with UO-31, in the assay on UACC-257, in the assay on SF-539, in the assay with HL-60 and in the assay on HOP-92 was > 100 µM (inactive) throughout. Further, the GI50 in the assay with COLO 205 was > 100 µM (inactive); in the assay on Malme-3M, > 100 µM (inactive); in the assay with OVCAR-3 it was > 10 µM (inactive); with K562, > 100 µM (inactive); in the assay on HT-29 it was > 100 µM (inactive); with RPMI-8226, > 100 µM (inactive).
For `COc1ccc(/N=C\c2cc(OC)c(OC)c(OC)c2)cc1`, the GI50 was > 100 µM (inactive) in the assay on SNB-19; 23.9 µM (inactive) in the assay with UACC-62; > 100 µM (inactive) with SK-MEL-28; > 100 µM (inactive) in the assay on OVCAR-5; > 100 µM (inactive) in the assay on OVCAR-8; > 100 µM (inactive) in the assay on HOP-62. Also, the GI50 with UO-31 is 64.9 µM (inactive); in the assay on UACC-257, > 100 µM (inactive); in the assay on SF-539, 87.1 µM (inactive); in the assay with HOP-92, > 100 µM (inactive); in the assay on SNB-75, > 100 µM (inactive); with Malme-3M, > 100 µM (inactive). Further, the GI50 in the assay with K562 was 33.7 µM (inactive); with HT-29, > 100 µM (inactive); in the assay with RPMI-8226, 18.7 µM (inactive).
Consider `CC(=O)[C@@]1(c2ccccc2)CC2(CCN(C)CC2)O[C@H]1C`, for which the GI50 with SNB-19, in the assay with SK-MEL-28, in the assay with OVCAR-5, in the assay on OVCAR-8, in the assay on HOP-62 and with UO-31 was > 100 µM (inactive) each time. The GI50 with UACC-257, in the assay on SF-539, in the assay on HOP-92, with COLO 205, in the assay with SNB-75 and with Malme-3M was > 100 µM (inactive) each time. In addition, the GI50 in the assay with OVCAR-3, with K562, in the assay with HT-29 and in the assay with RPMI-8226 was > 100 µM (inactive) in each case.
In the case of `C[C@]12CC[C@H](OC3CCCCO3)CC1=CC[C@@H]1C2CC[C@]2(C)/C(=N/OCCC#N)CCC12` (some centres not stated), the GI50 was 30.7 µM (inactive) in the assay with SNB-19; 97.1 µM (inactive) in the assay on UACC-62; > 100 µM (inactive) in the assay with SK-MEL-28; > 100 µM (inactive) in the assay with HCC 2998; 34.2 µM (inactive) with OVCAR-8; > 100 µM (inactive) in the assay on HOP-62. Besides, the GI50 with UO-31 is 47.8 µM (inactive); in the assay on UACC-257, 6.62 µM (inactive); in the assay with SF-539, 83.4 µM (inactive); with HOP-92, 21.9 µM (inactive); in the assay with SNB-75 it was 20.3 µM (inactive); in the assay on Malme-3M, > 100 µM (inactive). Moreover, the GI50 in the assay with OVCAR-3 was 68.7 µM (inactive); with K562, 6.95 µM (inactive); in the assay on HT-29 it was 2.17 µM (inactive); in the assay on RPMI-8226, > 100 µM (inactive).
Consider `O=C1C(Cl)=C(N2CCSCC2)C(=O)c2c(O)ccc(O)c21`, for which the GI50 in the assay on UACC-62 is 0.525 µM (active); in the assay with SK-MEL-28, 0.857 µM (active); with UO-31, 0.569 µM (active); in the assay with UACC-257, 1.51 µM (inactive); in the assay on HOP-92 it was 1.02 µM (active); in the assay on COLO 205 it was 0.1 µM (active). The GI50 is 1 µM (active) in the assay with SNB-75, 0.382 µM (active) with Malme-3M, 0.366 µM (active) with HT-29 and 0.1 µM (active) in the assay on RPMI-8226.
With `CC(=O)/C=C1\CC(=O)N(C)c2ccccc2N1`, the GI50 in the assay with SNB-19, with UACC-62, with SK-MEL-28, with OVCAR-5, in the assay with HCC 2998 and with OVCAR-8 was > 100 µM (inactive) throughout. In addition, the GI50 was > 100 µM (inactive) in the assay on HOP-62; > 100 µM (inactive) with UO-31; > 100 µM (inactive) in the assay on SF-539; > 100 µM (inactive) in the assay on HOP-92; 44.7 µM (inactive) in the assay on COLO 205; 0.0723 µM (active) in the assay with SNB-75. The GI50 in the assay with Malme-3M, with OVCAR-3, in the assay on K562 and in the assay with HT-29 was > 100 µM (inactive) in each case.
Take `CSC(=N)N1N=C2/C(=C/c3ccccc3)CCC[C@H]2[C@H]1c1ccccc1`: the GI50 is 6.47 µM (inactive) in the assay on SNB-19; 10.9 µM (inactive) with UACC-62; 3.13 µM (inactive) in the assay with SK-MEL-28; 3.98 µM (inactive) in the assay on OVCAR-5; 3.27 µM (inactive) in the assay with HCC 2998; 10.8 µM (inactive) in the assay with OVCAR-8. The GI50 in the assay with HOP-62 is 6.65 µM (inactive); in the assay with UO-31, 3.4 µM (inactive); in the assay on UACC-257 it was 2.37 µM (inactive); in the assay on SF-539 it was 6.58 µM (inactive); in the assay with HL-60, 1.72 µM (inactive); in the assay with HOP-92 it was 4.28 µM (inactive). The GI50 with COLO 205 is 1.55 µM (inactive); with Malme-3M, 1.93 µM (inactive); in the assay on OVCAR-3, 10.6 µM (inactive); with K562, 1.91 µM (inactive); with HT-29, 2.07 µM (inactive); in the assay on RPMI-8226, 2.18 µM (inactive).
For the compound `COc1cc(C)cc(OC)c1/C=C/C(=O)O`, the GI50 in the assay on SNB-19, in the assay on UACC-62, in the assay with SK-MEL-28, in the assay with OVCAR-5, in the assay on HCC 2998 and in the assay on OVCAR-8 was > 100 µM (inactive) in each case. Moreover, the GI50 in the assay with HOP-62, in the assay with UO-31, in the assay on UACC-257, in the assay on HL-60, with HOP-92 and in the assay on Malme-3M was > 100 µM (inactive) throughout. The GI50 with OVCAR-3 is 21.5 µM (inactive); in the assay on K562, > 100 µM (inactive); with HT-29, > 100 µM (inactive); in the assay with RPMI-8226, > 100 µM (inactive).
As to `C=C1C(=O)O[C@@H]2C[C@@]3(C)[C@H](O)CCC(=C)[C@@H]3C[C@H]12` [ASPERILIN], the GI50 in the assay with SNB-19 was 18.7 µM (inactive); with UACC-62, 5.96 µM (inactive); in the assay on SK-MEL-28, 7.59 µM (inactive); in the assay with OVCAR-5, 6.12 µM (inactive); with HCC 2998, 7.05 µM (inactive); in the assay on OVCAR-8, 7.24 µM (inactive). Also, the GI50 with HOP-62 was 17.1 µM (inactive); in the assay on UO-31 it was 10.8 µM (inactive); in the assay on SF-539, 11 µM (inactive); in the assay with HOP-92, 5.13 µM (inactive); with COLO 205, 2.72 µM (inactive); in the assay on SNB-75, 3.69 µM (inactive). In addition, the GI50 with Malme-3M is 3.11 µM (inactive); in the assay on OVCAR-3, 8.15 µM (inactive); with K562, 2.39 µM (inactive); with HT-29, 3.6 µM (inactive); in the assay with RPMI-8226, 3.46 µM (inactive).

The values are drawn from ChEMBL document CHEMBL1201862, “PubChem BioAssay data set” (2004).
